Patent US8420819B2, “Process for optimizing the particle size of an active pharmaceutical ingredient by crystallization” (Boehringer Ingelheim International GmbH, priority 2009, dated 2013)

Key:
[1] = Particle size of co-crystal batches, measured by Sympatec laser light diffraction; format: physicochemical; details: for Particle Size D10: scale-up batches from MEK/heptane crystallization, Sympatec laser light diffraction
[2] = Powder properties (flowability, bulk density) of crystallized particles; format: physicochemical; details: MEK/heptane process compared to particles produced from other solvent systems

## CCS(=O)(=O)c1cc2cc(C[C@](O)(CC(C)(C)c3ccc(F)cc3C(N)=O)C(F)(F)F)[nH]c2cn1.O=P(O)(O)O [2-[(3R)-3-(5-ethanesulfonyl-1H-pyrrolo[2,3-c]pyridin-2-ylmethyl)-4,4,4-trifluoro-3-hydroxy-1,1-dimethylbutyl]-5-fluorobenzamide phosphoric acid co-crystal]
[1]; MEK/heptane, initial concentration approximately 0.11-0.14 g/mL, seeded, high supersaturation
  D90: < 10 μm
[1]; approximately 1.0 wt % water in the solution (between about 0.7% and 1.2%) (FIG. 2)
  D90: 25-30 μm
[1]; crystallization as part of the synthesis, from acetic acid or anisole solvate, 50.0 g, KF <0.2 wt %
  particle size of the product, D90: about 7 μm
[1]; crystallization with 0.1 wt % water (FIG. 1)
  D90: 6 μm
[1]; crystallization with 1.1 wt % water (FIG. 2)
  D90: 26 μm
[1]; crystallization with 2.0 wt % water (FIG. 3)
  D90: 50 μm
[1]; crystallization with <0.5 wt % water in the solution (FIG. 1)
  D90: 5-10 μm
[1]; listed as Kilo lab batch, 1.8 kg, from acetic acid solvate
  Particle Size D10: 1.19 μm
[1]; listed as Lab batch 1 from acetic acid solvate
  Particle Size D10: 1.29 μm
[1]; listed as Lab batch 2 from acetic acid solvate
  Particle Size D10: 1.28 μm
[1]; listed as Lab batch 3 from acetic acid solvate
  Particle Size D10: 1.54 μm
[1]; listed as Lab batch from new synthesis from acetic acid solvate
  Particle Size D10: 1.17 μm
[1]; listed as Lab batch, from anisole solvate
  Particle Size D10: 1.31 μm
[1]; listed as Pilot plant batch A, 11 kg, from anisole solvate
  Particle Size D10: 1.61 μm
[1]; listed as Pilot plant batch B, 22 kg, from anisole solvate
  Particle Size D10: 1.67 μm
[1]; listed as Pilot plant batch, 9 kg, from acetic acid solvate
  Particle Size D10: 1.26 μm
[1]; standalone re-crystallization process, 50.0 g co-crystal, KF ≦0.2 wt %
  particle size of the product, D90: about 7 μm
[2]
  powder properties (flowability, bulk density): excellent powder properties
